Patent US12281102B2, “Inhibitors of APOL1 and methods of using same” (Vertex Pharmaceuticals Incorporated, priority 2020, dated 2025)
pIC50: −log10 of the molar value. Read-outs that look alike come from different tables or passages of the source.

Target: T1, G1 APOL1 (Homo sapiens, UniProt O14791, I384M/S342G)
T1 construct: expressed in transfected cells
T1 sequence (O14791 28-398 S342G/I384M): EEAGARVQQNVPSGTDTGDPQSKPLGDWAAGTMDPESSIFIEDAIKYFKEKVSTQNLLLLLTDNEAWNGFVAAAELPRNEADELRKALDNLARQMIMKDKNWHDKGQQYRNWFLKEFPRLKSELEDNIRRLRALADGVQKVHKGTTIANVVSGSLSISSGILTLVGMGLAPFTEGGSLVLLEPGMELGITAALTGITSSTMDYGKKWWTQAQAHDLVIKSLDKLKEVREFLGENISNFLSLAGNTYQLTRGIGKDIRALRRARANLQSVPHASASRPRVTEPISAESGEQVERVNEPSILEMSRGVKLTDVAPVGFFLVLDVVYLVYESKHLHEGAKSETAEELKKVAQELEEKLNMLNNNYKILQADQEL
Assay: Acute APOL1 Thallium Assay with inducible stable clones of HEK 293 cells
Format: cell-based
Conditions: HEK 293 T-Rex inducible stable clone expressing G1 APOL1
Source text: Acute APOL1 Thallium Assay with Inducible Stable Clones of HEK 293 Cells
Apolipoprotein L1 (APOL1) proteins form potassium-permeable cation pores in the plasma membrane. APOL1 risk variants (G1 and G2) induce greater potassium flux than G0 in HEK293 cells. This assay exploits the permeability of thallium (T1+) through ligand-gated potassium channels. The dye produces a bright fluorescent signal upon binding to T1+ conducted through potassium channels. The intensity of the T1+ signal is proportional to the number of potassium channels in the open state. Therefore, it provides a functional indication of the potassium channel activities. During the initial dye-loading step, the T1+ indicator dye as an acetoxymethyl (AM) ester enters the cells through passive diffusion. Cytoplasm esterases cleave the AM ester and relieve its active thallium-sensitive form. The cells are then stimulated with T1+. The increase of fluorescence in the assay represents the influx of T1+ into the cell specifically through the potassium channel (i.e. through APOL1 pores), providing a functional measurement of potassium channel/pore activity. The Thallium assay is conducted with cells expressing G1 APOL1.
APOL1 Cell Line (HEK T-Rex Stable Inducible Cell Line)
• HEK T-Rex System • Tetracycline (Tet) inducible mammalian expression system. • Stably express the Tet repressor to regulate transcription. • Expression under the full-length CMV promoter. • APOL1 stable inducible cell line Clone used: G1 DC3.25 Tissue Culture Media Cell Culture Medium • DMEM+10% FBS+P/S+5 μg/mL blasticidin+1 μg/mL puromycin. • 500 mL DMEM+55 mL FBS+5 mL P/S+280 μL blasticidin S HCl (10 mg/mL)+56 μL puromycin (10 mg/mL). Cell Assay Medium • DMEM with 2% FBS+penicillin streptomycin. Reagents:
Instruments and Equipment • Nuaire cell culture hood, Cat. No. 540-600 • 37° C./5% CO2 incubator link to robotic arm, Liconic: STX110 • Molecular Devices FLIPR^Tetra High throughput cellular screening system, Cat. No. FT0324, Molecular Devices • ThermoFisher MultiDrop 384, Cat. No. 5840300 • Biotek Microfill, Cat. No. ASF1000A-4145 • BioRad TC10 cell counter, Cat. No. 145-0010 Assay Procedures Cells Scaled Up from Frozen Vials • APOL1 G1 3.25 (HEK293 T-Rex) frozen vials: 5 million cells per vial • Step 1, Day 1: Defrost frozen vial into T-225. • Step 2, Day 5: (when 85% confluent): Split one T-225 at 3×10^6 cells per flask. • Step 3, Day 8: Splits cells to set up for the assay plates as described below. Cell Culture
T-Rex APOL1 HEK cells are split twice per week to keep the confluence state below 85% of the culture flask surface area. Cells can be kept until passage 25.
• DMEM high glucose+10% FBS, +P/S, +5 μg/mL blasticidin, +1 μg/mL puromycin. • 500 mL DMEM, +55 mL FBS, +5 mL P/S, +280 μL blasticidin 10 mg/mL, +56 μL Puromycin 10 mg/mL. Assay Media • Opti-MEM reduced serum medium from Invitrogen. Day 1 Preparation of Cell Assay Plates • Culture medium is removed from the x cm^2 T-flask by aspiration. • The cell monolayer is rinsed with PBS 1× at room temperature. PBS is removed by aspiration. • Cells are trypsinized using Trypsin. • The flasks are incubated at room temperature for 2-3 minutes. • Complete DMEM medium is then added. Cell suspension is then transferred to a 50 mL Falcon polypropylene tube. • Cells are then counted using a BioRad TC10 cell counter and the required amount of cells are centrifuged at 1200 RPM for 5 minutes. Required amount is 1.3×10^6 cells/mL APOL1 T-Rex HEK cells. • The pellet is suspended in the assay medium. • Using the MultiDrop, add 20 μL to each well (corresponds to 26000 cells total per well) of a 384-well black, transparent, flat bottom Poly-D coated plate. • Tetracycline as prepared in the following section is added to the cells before plating to induce APOL1 expression. • Plates are left at room temperature for 20 to 30 minutes before incubation at 37° C. and 5% CO2. […]

[1] = read-out: Thallium Assay (IC50)

Structure (SMILES) | pIC50 [1] | pIC50 (Thallium Assay (IC50))
CC(CCO)NS(=O)(=O)NC[C@H]1C[C@H](c2c(-c3ccc(F)cc3)[nH]c3c(F)cc(F)cc32)C1 (mixture of isomers) [Compound 362] | 6.00 to 6.60 | –
CC(NC(=O)O[C@H]1C[C@H](c2c(-c3ccc(F)cc3)[nH]c3c(F)cc(F)cc32)C1)C(N)=O (mixture of isomers) [Compound 456, [3-[5,7-difluoro-2-(4-fluorophenyl)-1H-indol-3-yl]cyclobutyl]N-(2-amino-1-methyl-2-oxo-ethyl)carbamate] | < 6.00 | –
NC1CC(c2c(-c3ccc(OC(F)(F)F)cc3)[nH]c3c(F)cc(F)cc23)C1 (centres unmarked) [Compound 8, 3-[5,7-difluoro-2-[4-(trifluoromethoxy)phenyl]-1H-indol-3-yl]cyclobutanamine] | 6.00 to 6.60 | –
NC1CC(c2c(-c3ccc(OC(F)F)cc3)[nH]c3c(F)cc(F)cc23)C1 (centres unmarked) [Compound 9] | > 6.60 | –
O=C(NC1CC(c2c(-c3ccc(F)cc3)[nH]c3c(F)cc(F)cc23)C1)OCc1ccccc1 (centres unmarked) [Compound 13, benzyl N-[3-[5,7-difluoro-2-(4-fluorophenyl)-1H-indol-3-yl]cyclobutyl]carbamate] | < 6.00 | –
NC1CC(c2c(-c3ccc(F)cc3)[nH]c3c(F)cc(F)cc23)C1 (centres unmarked) [Compound 14, 3-[5,7-difluoro-2-(4-fluorophenyl)-1H-indol-3-yl]cyclobutanamine] | – | > 6.60
CC(=O)Nc1ccn(C2CC(c3c(-c4ccc(F)cc4)[nH]c4c(F)cc(F)cc34)C2)n1 (centres unmarked) [Compound 19, N-[1-[3-[5,7-difluoro-2-(4-fluorophenyl)-1H-indol-3-yl]cyclobutyl]pyrazol-3-yl]acetamide] | < 6.00 | –
O=C1NCC[C@@H]1NC1CC(c2c(-c3ccc(F)cc3)[nH]c3c(F)cc(F)cc23)C1 (stereo partly drawn) [Compound 20, (3S)-3-[[3-[5,7-difluoro-2-(4-fluorophenyl)-1H-indol-3-yl]cyclobutyl]amino]pyrrolidin-2-one] | > 6.60 | –
Fc1ccc(-c2[nH]c3c(F)cc(F)cc3c2C2CC(NC3COC3)C2)cc1 (centres unmarked) [Compound 22] | < 6.00 | –
CC(=O)NCCNC1CC(c2c(-c3ccc(F)cc3)[nH]c3c(F)cc(F)cc23)C1 (centres unmarked) [Compound 23] | < 6.00 | –
OCCNC1CC(c2c(-c3ccc(F)cc3)[nH]c3c(F)cc(F)cc23)C1 (centres unmarked) [Compound 25] | 6.00 to 6.60 | –
Fc1ccc(-c2[nH]c3c(F)cc(F)cc3c2C2CC(NCC(F)F)C2)cc1 (centres unmarked) [Compound 26] | 6.00 to 6.60 | –
O=C(N[C@H]1C[C@@H](c2c(-c3ccc(F)cc3)[nH]c3c(F)cc(F)cc32)C1)OCc1ccccc1 [Compound 27, benzyl((1s,3s)-3-(5,7-difluoro-2-(4-fluorophenyl)-1H-indol-3-yl)cyclobutyl)carbamate] | < 6.00 | –
N[C@H]1C[C@@H](c2c(-c3ccc(F)cc3)[nH]c3c(F)cc(F)cc32)C1 [Compound 28, (1s,3s)-3-(5,7-difluoro-2-(4-fluorophenyl)-1H-indol-3-yl)cyclobutan-1-amine] | – | > 6.60
COC1(CC(=O)N[C@H]2C[C@@H](c3c(-c4ccc(F)cc4)[nH]c4c(F)cc(F)cc43)C2)CCC1 [Compound 37] | < 6.00 | –
CN(CC(=O)N[C@H]1C[C@@H](c2c(-c3ccc(F)cc3)[nH]c3c(F)cc(F)cc32)C1)S(C)(=O)=O [Compound 38] | < 6.00 | –
CN1CCCC(CC(=O)N[C@H]2C[C@@H](c3c(-c4ccc(F)cc4)[nH]c4c(F)cc(F)cc43)C2)C1 (some centres unmarked) [Compound 39] | < 6.00 | –
CS(=O)(=O)NCC(=O)N[C@H]1C[C@@H](c2c(-c3ccc(F)cc3)[nH]c3c(F)cc(F)cc32)C1 [Compound 42] | < 6.00 | –
CCS(=O)(=O)NCC(=O)N[C@H]1C[C@@H](c2c(-c3ccc(F)cc3)[nH]c3c(F)cc(F)cc32)C1 [Compound 43] | < 6.00 | –
CN1CCC(CC(=O)N[C@H]2C[C@@H](c3c(-c4ccc(F)cc4)[nH]c4c(F)cc(F)cc43)C2)C1 (some centres unmarked) [Compound 45] | < 6.00 | –
O=C(CN1CCCC1)N[C@H]1C[C@@H](c2c(-c3ccc(F)cc3)[nH]c3c(F)cc(F)cc32)C1 [Compound 46] | < 6.00 | –
O=C(CCN1CCCC1=O)N[C@H]1C[C@@H](c2c(-c3ccc(F)cc3)[nH]c3c(F)cc(F)cc32)C1 [Compound 48] | < 6.00 | –
Cn1nccc1CC(=O)N[C@H]1C[C@@H](c2c(-c3ccc(F)cc3)[nH]c3c(F)cc(F)cc32)C1 [Compound 49] | < 6.00 | –
O=C(CC1COC1)N[C@H]1C[C@@H](c2c(-c3ccc(F)cc3)[nH]c3c(F)cc(F)cc32)C1 [Compound 50] | < 6.00 | –
NS(=O)(=O)CCC(=O)N[C@H]1C[C@@H](c2c(-c3ccc(F)cc3)[nH]c3c(F)cc(F)cc32)C1 [Compound 51] | < 6.00 | –
CN1CCC(CC(=O)N[C@H]2C[C@@H](c3c(-c4ccc(F)cc4)[nH]c4c(F)cc(F)cc43)C2)CC1 [Compound 52] | < 6.00 | –

Continued, in another order:

pIC50 [1] | Structure (SMILES) | pIC50 (Thallium Assay (IC50))
< 6.00 | CC1(CO)CCN1S(=O)(=O)NC[C@H]1C[C@H](c2c(-c3ccc(F)cc3)[nH]c3c(F)cc(F)cc32)C1 (mixture of isomers) [Compound 364] | –
6.00 to 6.60 | NC1CC(c2c(-c3ccc(C4CC4)cc3)[nH]c3ccc(F)cc23)C1 (centres unmarked) [Compound 7, 3-[2-(4-cyclopropylphenyl)-5-fluoro-1H-indol-3-yl]cyclobutanamine] | –
6.00 to 6.60 | OCC1(NC2CC(c3c(-c4ccc(F)cc4)[nH]c4c(F)cc(F)cc34)C2)CC1 (centres unmarked) [Compound 21] | –
< 6.00 | CN(C1COC1)C1CC(c2c(-c3ccc(F)cc3)[nH]c3c(F)cc(F)cc23)C1 (centres unmarked) [Compound 24] | –
6.00 to 6.60 | O=C(CO)N[C@H]1C[C@@H](c2c(-c3ccc(F)cc3)[nH]c3c(F)cc(F)cc32)C1 [Compound 29, N-((1s,3s)-3-(5,7-difluoro-2-(4-fluorophenyl)-1H-indol-3-yl)cyclobutyl)-2-hydroxyacetamide] | –
< 6.00 | O=C(CC1CC(F)(F)C1)N[C@H]1C[C@@H](c2c(-c3ccc(F)cc3)[nH]c3c(F)cc(F)cc32)C1 [Compound 31] | –
< 6.00 | CS(=O)(=O)CCCC(=O)N[C@H]1C[C@@H](c2c(-c3ccc(F)cc3)[nH]c3c(F)cc(F)cc32)C1 [Compound 32] | –
< 6.00 | O=C(Cn1cnnc1)N[C@H]1C[C@@H](c2c(-c3ccc(F)cc3)[nH]c3c(F)cc(F)cc32)C1 [Compound 33] | –
< 6.00 | O=C(CC1CCOCC1)N[C@H]1C[C@@H](c2c(-c3ccc(F)cc3)[nH]c3c(F)cc(F)cc32)C1 [Compound 34] | –
< 6.00 | Cn1ccc(CC(=O)N[C@H]2C[C@@H](c3c(-c4ccc(F)cc4)[nH]c4c(F)cc(F)cc43)C2)n1 [Compound 41] | –
< 6.00 | O=C(CCN1CCCC1)N[C@H]1C[C@@H](c2c(-c3ccc(F)cc3)[nH]c3c(F)cc(F)cc32)C1 [Compound 44] | –
< 6.00 | O=C(CC1(O)CCCCC1)N[C@H]1C[C@@H](c2c(-c3ccc(F)cc3)[nH]c3c(F)cc(F)cc32)C1 [Compound 47] | –
